Experimental data: a melting point compilation (Tetko et al.; mined from patent text by program, amines drawn as free bases though some values may be those of a salt)

SMILES | melting point
COc1ccc(-n2c(=O)[nH]c3cc(Cl)cc(Cl)c3c2=O)cc1 | 294 to 296 °C
COc1ccc(-c2nc(SC)ncc2-c2ccc(Cl)cc2)cc1 | 127 to 130 °C
Cc1c(Br)c2ccccn2c1C(=O)c1ccc(N)c(C(=O)O)c1 | 230 °C
CN1CCC(OC2c3cccc(CCc4ccccc4)c3CCn3cc(-c4ccccc4)nc32)CC1 (stereo unspecified) | 67 °C
COc1cc(/C=C/C=C/C(=O)NCCCC2CNCCC2c2c[nH]c3ccccc23)cc(OC)c1O (stereo unspecified) | 176 to 179 °C
CC(CCC=O)C1CC=C2C3=C(CCC21C)C1(C)CCC(=O)C(C)(C)C1CC3 (stereo unspecified) | 96.5 to 97 °C
COC(=O)c1nc(Cl)c(F)c(N)c1Br | 138 to 139 °C
Cc1nc(-c2ccc(C(=O)c3ccccc3)cc2)sc1C(=O)O | 217 to 218 °C
O=S1(=O)NC=Nc2cc(C(F)(F)F)c(F)cc21 | 152 °C
CC(C)(C)OC(=O)N[C@@H](Cc1ccc(-c2ccccc2)cc1)c1nnnn1CCC#N | 184 to 185 °C
CCOC(=O)CNC(=O)CC(O)CBr (stereo unspecified) | 59 to 61 °C
O=C(/C=C/c1ccc2c(/C=C/C(=O)N3CCCC3)c[nH]c2c1)N1CCCC1 | 268 to 270 °C
NS(=O)(=O)c1ccc(CCCCCO)s1 | 65 to 67 °C
O=C(OCc1ccccc1)c1ccc(O)cc1O | 83 to 88 °C
CCOC(=O)c1c(N2CCN(C(=O)c3cccs3)CC2)c2cccnc2n(CCCN(C)C)c1=O | 84 to 94 °C
CCc1cn(C2CC(O)C(CNC(=O)c3ccc4ccccc4c3)O2)c(=O)[nH]c1=O (stereo unspecified) | 242 to 244 °C
CCOC(=O)c1oc2ccc(Br)c(OC(C)C)c2c1C | 48 to 50 °C
CCN1CCC(O)(c2ccc(F)c(Cl)c2)C1 (stereo unspecified) | 157 to 158 °C
O=C(O)CC(O)c1cccc(Cl)c1 (stereo unspecified) | 94.5 to 95.5 °C
COC(=O)Nc1nc2cc(S(=O)CC(C)C)ccc2[nH]1 (stereo unspecified) | 198 to 201 °C
Cc1ccc(Cc2cnc(NCCCN(Cc3ccc(Cl)cc3)c3ccccn3)[nH]c2=O)cn1 | 88 to 92 °C
O=C1NS(=O)Oc2ccccc21 (stereo unspecified) | 180 to 182 °C
CCCc1[nH]c(C)c(C(C)=O)c1C | 157 to 158 °C
CCOC(=O)N1CCN(c2ccc(Br)cn2)CC1 | 68 °C
COc1cc([C@H](C)O)ccc1OCCCN1CCC(c2noc3cc(F)ccc23)CC1 | 138 to 139 °C
O=C(/C=C/c1ccccc1Cl)Nc1ccc(-n2nc(C(F)(F)F)cc2C(F)(F)F)cc1 | 173 to 175 °C
CCCCCCCCCCCCCCNC(=O)c1cc(N)cc(C(=O)NCCCCCCCCCCCCCC)c1 | 171 to 178 °C

SMILES | melting point
CC(C)(C)OC(=O)N[C@@H](Cc1ccccc1)C[C@H](O)[C@H](Cc1ccccc1)N(Cc1ccccc1)Cc1ccccc1 | 145 to 146 °C
CCCCOC(=O)c1ccc(N(C)C=Nc2ccc(C(=O)OCC)cc2)cc1 | 83 to 85 °C
Fc1cc(CBr)ccc1-c1nc2ccccc2o1 | 170 to 173 °C
O=c1cc(O)nc2cc(C(c3c(F)ccc(F)c3F)S(=O)(=O)CCC(F)(F)F)c(Cl)cn12 (stereo unspecified) | 264 °C
COc1ccc(CC(O)c2ccccn2)cc1 (stereo unspecified) | 110 to 112 °C
CNc1nc(O)nc2c(Cl)cc(OC)c(OC)c12 | 219 to 221 °C
CCOC(=O)C(C#N)=CNc1ccc([N+](=O)[O-])cc1 | 227 to 228 °C
c1csc(-c2nc3cc(COc4ccc(CCCn5ccnc5)cc4)ccc3o2)c1 | 130 to 131 °C
CC(CCCC(C)(C)O)C1CCC2C3=CC=C4CC(O)C5OC5C4(C)C3CCC21C (stereo unspecified) | 173 to 175 °C
CCOC(=O)N[C@@H]1CC=C[C@@H]2CNC[C@H]21 (racemic) | 120 to 122 °C
CCn1c(=O)c2[nH]c(/C=C/c3ccc(OC)cc3OC)nc2n(CC)c1=O | 279 to 280 °C
COc1cc(Cl)ccc1CBr | 42 to 45 °C
CCOC(=O)c1cccc2c1Nc1ccc(C(=O)c3ccccc3)cc1N2Cc1ccccc1 | 134 to 136 °C
C=CCC1C(OCc2ccccc2)CC(OCc2ccccc2)C1OS(=O)(=O)c1ccc(C)cc1 (single isomer, unassigned; (-)) | 57 to 58 °C
CCOC(=O)c1nc(-c2ccc(Cl)c(OC)c2F)cc(N)c1SC | 93 to 94 °C
Cc1ccc(S(=O)(=O)N2CCc3ccccc3C(Oc3ccc(C(F)(F)F)cc3)C2)cc1 (stereo unspecified) | 114 to 115 °C
CC(C)n1nc(-c2cc(-c3ccccc3)c(N)nc2-c2ccccc2)ccc1=O | 208 to 209 °C
O=[N+]([O-])c1c(-c2ccc(Cl)cc2)[nH]c(SC(F)(F)F)c1Br | 160 to 165 °C
Fc1ccc(Nc2ncnc3cnc(N4CCN(c5ccncc5)CC4)nc23)cc1Cl | 248 to 250 °C
O=C1C(Cc2ccncc2)c2ccccc2N1N1CCOCC1 (stereo unspecified) | 108 to 110 °C
O=C(Nc1ccc(O)cc1[N+](=O)[O-])OCCCl | 170 °C
COC(=O)C=C1SC(Nc2c(Cl)cccc2Cl)=NC1=O | 189 to 190 °C
N#Cc1cc(CO)nc(C(=O)Nc2ccc(F)cn2)c1 | 232 °C
Cc1cc(-n2ccnc2)c2cccc(OCc3c(Cl)ccc(S(=O)(=O)N4CCC[C@H]4C(=O)NCC4CCN(CCCC(=O)O)CC4)c3Cl)c2n1 | 178 °C
Cc1ccc2c(c1)CC(=O)N2c1c(F)cccc1Cl | 137 to 140 °C
O=S1(=O)C=C(N2CCCCC2)c2ccccc2O1 | 187 to 189 °C

Further lines, results first:

melting point | SMILES
222 to 223 °C | O=C(Nc1noc2ccccc12)N1CCN(c2nc(-c3ccccn3)ns2)CC1
154 to 156 °C | O=C1NCCN1c1ccccc1
41.5 to 42.5 °C | Cc1ccsc1C(O)CCN(C)C (stereo unspecified)
84 to 89 °C | O=[N+]([O-])c1nccn1CC(F)CO (stereo unspecified)
290 °C | O=C1OC(=O)c2cc3ccc([N+](=O)[O-])cc3c3cccc1c23
182 to 185 °C | CCCCOc1ccc(S(C)(=O)=O)cc1C(=O)Nc1c(C(N)=O)nn(CCN2CCOCC2)c1CC
72.5 to 73.5 °C | C[C@H](CC(F)(F)F)C(=O)N1C(=O)O[C@@H](c2ccccc2)[C@H]1C
116 to 118 °C | CC=Cc1cc(OC)cc2cc(-c3ccc(OC)cc3)oc12
142 °C | COc1cc(O)c(C(=O)C=Cc2ccc(OC(C)=O)cc2)c(OC)c1
220 °C | O=C(NCc1ccccn1)Nc1nc(C(=O)O)cs1
122 °C | COc1cc2c(cc1OCc1ccccc1)C1Cc3c(Cl)cc(OC)c(OCCOCCO)c3CN1CC2 (stereo unspecified)
126 to 127 °C | CN(C)CCNC(=O)Cc1ccc(NC(=O)OCc2ccccc2)cc1
286 °C | O=C(O)CCn1c2ccc(O)cc2c2c3c(c(-c4ccccc4Cl)cc21)C(=O)NC3=O
275 to 278 °C | CCOC(=O)c1cnc2ccc(OCC)nc2c1O
241 to 242 °C | O=C(CSc1nc2ccccc2s1)c1ccc2[nH]c3ncc(Cl)cc3c2c1
138 °C | COc1ccc2c(c1)CN(C(=O)OCc1ccccc1)CC(=O)N2
211 to 212 °C | Cc1nc2c(OCc3c(Cl)ccc(N(C)C(=O)CNC=O)c3Cl)cccn2c1Br
124 to 126 °C | CCCc1nc(C)c2nnc3ccc(F)cc3n12
95 to 97 °C | CC(=Cc1cccc(F)c1)C(=O)O
100 to 101 °C | O=[N+]([O-])c1cc(CBr)cc(CBr)c1
256 to 257 °C | CCOC(=O)c1cc2n(CC)c3ccc(Cl)cc3c(=O)n2n1
134 to 135 °C | CCC(C(=O)O)N(C(=O)c1cn(-c2cc(C(F)(F)F)ccc2Cl)nc1C)c1ccc(OCC(C)(C)C)c(C#N)c1 (stereo unspecified)
208 to 210 °C | Nc1c(C(=O)c2ccccc2O)oc2ccc(Cl)cc12
128 °C | COC(=O)C1C=CCN2C(=O)C(C)(CCOC3CCCCO3)C(=O)N12 (stereo unspecified)

melting point | SMILES
200 to 201 °C | O=C1c2ccc(N3CCCC3)c3c(Cl)c(Cl)cc(c23)C(=O)N1O
185 to 187 °C | CCc1cnc(N=Cc2cnc([N+](=O)[O-])n2C)n1CCO
181 °C | COc1ccc(N2CCN(c3ccc(N=C=S)cc3)CC2)cc1
204 to 206 °C | CC(C)(C)c1cc(C(=O)NCCc2ccc([N+](=O)[O-])cc2)cc(C(C)(C)C)c1O
128 °C | O=c1c(O)c(-c2ccccc2)oc2cc(O)ccc12
190 to 192 °C | COc1ccc2nc(COc3ccc(F)c(C(N)=O)c3F)sc2c1
149 to 151 °C | CCOC(=O)CC[C@H](NC(=O)c1ccc(CN(C=O)CC2CNc3nc(NC(=O)C(C)(C)C)nc(O)c3C2)cc1)C(=O)OCC (stereo partly specified)
157 to 158 °C | CC(=O)c1ccc(-c2c(C)c(NC(=O)CC(C)(C)C)c(C)c3c2OCC3c2ccc(C(C)C)cc2)s1 (stereo unspecified)
295 to 297 °C | N=C(N)Nc1nnc(-c2ccc([N+](=O)[O-])cc2)s1
243 °C | O=C1[C@@H]2Cc3ccccc3CN2C(=O)N1c1cc(Cl)cc(Cl)c1
118 to 119 °C | Cc1cc(C2(C(F)(F)F)CC(c3ccc(Cl)cc3)=NO2)ccc1N (stereo unspecified)
187 to 190 °C | COC(=O)NC1=NCC(c2cccc3ccccc23)N1C (stereo unspecified)
111 to 113 °C | CCOC(=O)C(=Cc1ccccc1)S(=O)(=O)NC(C)(C)C
153 to 159 °C | CC(=O)NC[C@H]1CN(c2ccc(N3CCN(C(=O)OC(C)(C)C)CC3)c(F)c2)C(=O)O1
117 to 118 °C | CCCc1c(OCCCCCOc2cccc(NC(=O)C(=O)O)c2)ccc(C(C)=O)c1O
176 to 178 °C | N=C(N)Nc1nc(-c2ccccc2[N+](=O)[O-])cs1
216 to 217 °C | O=C(O)c1ccc(CNc2cc(Br)ccc2OCc2ccccc2)cc1
101 to 103 °C | CC(C)CNCc1cnc2[nH]c(-c3cc(OCc4ccccc4)ccc3OC(C)C)nc2c1
240 to 244 °C | NC(=O)[C@@H]1[C@H](Nc2ccnc3[nH]c(-c4ccc(CN5CCOCC5)cc4)nc23)[C@H]2C=C[C@@H]1C2
236 to 239 °C | COc1cc2c3c(cccc3c1)C(=O)N(O)C2=O
196 to 197 °C | COc1ccc(Cn2ncc3c4c(cnc32)C(=O)NC4=O)cc1
247 to 250 °C | O=[N+]([O-])c1ccc(CO)c(Nc2nccc(-c3cccnc3)n2)c1
266 to 268 °C | COc1cc(C=C2NC(=O)NC2=O)cc(OC)c1OC
68 to 69 °C | CCC(CN1CCCC1)C(=O)c1cc(-c2ccccc2)no1 (stereo unspecified)
